Legend:
[1] = system: hydantoinase; assay: Effect of substrate concentration on rate of conversion by glutaraldehyde treated cells; type: biochemical, Ochrobactrum anthropi; details: pH 8.8, 42° C.; for % Conversion: 6 hours
Procedure: Incubations were in 200 mM TAPS pH 8.8, 42° C. for 6 hours, and pH adjustments were made back to normal at least every hour.

[2] = system: hydantoinase; assay: Substrate specificity of purified recombinant hydantoinase; type: biochemical, Ochrobactrum anthropi; details: purified recombinant enzyme from E. coli BL21, compound as substrate
Procedure: E. coli BL21 containing the hydantoinase gene was grown as described in example 4.2. The cells were centrifuged and washed with 100 mM carbonate buffer pH 9.0 and resuspended in the same buffer and ruptured by sonication. The enzyme was purified as described in example 2. The purified enzyme was tested for substrate specificity with various hydantoins as substrate.

[3] = system: hydantoinase; assay: Effect of glutaraldehyde and acetone treatment of whole cells on hydantoinase activity; type: biochemical, Ochrobactrum anthropi; details: treated whole cells; 10 mg/ml D,L-p-hydroxyphenyl hydantoin, pH 8.5, 42° C., 4 hours; Control (buffer only) = 1
Procedure: Washed cell suspension 0.5 ml aliquots of culture was treated with 0.5 ml glutaraldehyde (G.A.) final concentration 2% in phosphate buffer pH 7.0, or with 0.5 ml G.A. 2% in phosphate buffer and 1 ml acetone, or with 0.5 ml acetone alone at room temperature for 10 minutes. The treated cells were washed with 10 ml 0.9% saline and then with saline +1 mg/ml ammonium sulfate and resuspended in 1 ml 100 mM TAPS buffer pH 8.5. Resuspended cell suspensions were incubated with 10 mg/ml D,L-p-hydroxyphenyl hydantoin in 100 mM TAPS pH 8.5 (final volume 800 μl) at 42° C. for 4 hours. Reactions were terminated with 200 μl TCA 12% and assayed.

[4] = system: hydantoinase; assay: Metal ion requirements of purified hydantoinase; type: biochemical, Ochrobactrum anthropi; parameters: Specific activity: unit not given here; details: hydantoin as substrate, metal ion at 100 mM concentration
Procedure: Purified hydantoinase was assayed with hydantoin with the addition of the various metal ions at 100 mM concentration.

[5] = Specific activity of purified hydantoinase; type: biochemical, Ochrobactrum anthropi; details: active band eluant from preparative native gel
Procedure: Active band eluant from preparative native gel was assayed and protein determined by Pierce Microtiter assay protocol using BSA standard. Specific activity was determined at greater than 4 IU per mg of protein.

[6] = PI value of hydantoinase by IEF-PAGE; type: physicochemical, Ochrobactrum anthropi; details: IEF-PAGE gel, pH range of 3-9
Procedure: Active band eluant from preparative native gel was run on the Phast System IEF-PAGE gel with a pH range of 3-9 using low MW protein markers and the gel was silver stained. PI of active band protein was determined at approximately 4.5.

[7] = Stability of enzyme at pH 8.8, 9.3 and 9.8; type: biochemical, Ochrobactrum anthropi; details: then assayed at pH 8.8, 42° C.
Procedure: Glutaraldehyde treated cells from pH profile study were held at pH 8.8, 9.3 and 9.8 for about 4 hours. Solids were washed, resuspended in 25 mM TAPS pH 8.8 and 10 mg/ml D,L-p-hydroxyphenyl hydantoin and incubated at 42° C. for 4 hours. […] Optimum pH of activity at 8.8 in pH profile study was probably due to greater enzyme stability at pH 8.8 rather than pH 9.3 or 9.8.

Molecule: O=C1NC(=O)C(c2ccc(O)cc2)N1 (racemic) [D,L-p-hydroxyphenyl hydantoin]
- product formed ([1]; substrate 5 mg/ml, 2¾ hr): 1.9 mg/mL
- product formed ([1]; substrate 5 mg/ml, 30 min): .56 mg/mL
- product formed ([1]; substrate 5 mg/ml, 60 min): 1.0 mg/mL
- product formed ([1]; substrate 5 mg/ml, 4 hr): 2.1 mg/mL
- product formed ([1]; substrate 5 mg/ml, 6 hr): 2.2 mg/mL
- % Conversion ([1]; substrate 5 mg/ml): 40%
- product formed ([1]; substrate 10 mg/ml, 2¾ hr): 3.4 mg/mL
- product formed ([1]; substrate 10 mg/ml, 30 min): .75 mg/mL
- product formed ([1]; substrate 10 mg/ml, 60 min): 1.4 mg/mL
- product formed ([1]; substrate 10 mg/ml, 4 hr): 4.0 mg/mL
- product formed ([1]; substrate 10 mg/ml, 6 hr): 4.4 mg/mL
- % Conversion ([1]; substrate 10 mg/ml): 40%
- product formed ([1]; substrate 20 mg/ml, 2¾ hr): 4.0 mg/mL
- product formed ([1]; substrate 20 mg/ml, 30 min): .82 mg/mL
- product formed ([1]; substrate 20 mg/ml, 60 min): 1.5 mg/mL
- product formed ([1]; substrate 20 mg/ml, 4 hr): 6.2 mg/mL
- product formed ([1]; substrate 20 mg/ml, 6 hr): 7.7 mg/mL
- % Conversion ([1]; substrate 20 mg/ml): 35%
- product formed ([1]; substrate 50 mg/ml, 2¾ hr): 4.2 mg/mL
- product formed ([1]; substrate 50 mg/ml, 30 min): .95 mg/mL
- product formed ([1]; substrate 50 mg/ml, 60 min): 1.6 mg/mL
- product formed ([1]; substrate 50 mg/ml, 4 hr): 6.3 mg/mL
- product formed ([1]; substrate 50 mg/ml, 6 hr): 9.2 mg/mL
- % Conversion ([1]; substrate 50 mg/ml): 17%

Molecule: O=C1CNC(=S)N1 [2-thio hydantoin]
- Specific activity [2]: 4.3 IU/mg

Molecule: CC1NC(=O)NC1=O (centres unmarked) [5-methyl hydantoin]
- Specific activity [2]: 10.6 IU/mg

Molecule: CC(C)=O [Acetone, acetone]
- Relative Activity [3]: 2.8

Molecule: [Ca+2] [Ca (II)]
- Specific activity [4]: 3.6

Molecule: [Co+2] [Co (II)]
- Specific activity [4]: 3.6

Molecule: [Cu+2] [Cu (II)]
- Specific activity [4]: 1.2

Molecule: O=C(O)CC1NC(=O)NC1=O (centres unmarked) [D,L hydantoin 5-acetic acid]
- Specific activity [2]: 1.8 IU/mg

Molecule: [Fe+2] [Fe (II)]
- Specific activity [4]: 9.3
- effect on the activity of the enzyme [4]: stimulate the activity

Molecule: [Fe+3] [Fe (III)]
- Specific activity [4]: 3.8

Molecule: O=CCCCC=O [Glutaraldehyde, glutaraldehyde]
- Relative Activity [3]: 1.2

Molecule: O=C1CNC(=O)N1 [Hydantoin]
- Specific activity [2]: 7.5 IU/mg

Molecule: [Mg+2] [Mg (II)]
- Specific activity [4]: 5.2

Molecule: [Mn+2] [Mn (II)]
- Specific activity [4]: 7.1
- effect on the activity of the enzyme [4]: stimulate the activity

Molecule: [Ni+2] [Ni (II)]
- Specific activity [4]: 3.6

Molecule: O=C(O)CN(CCN(CC(=O)O)CC(=O)O)CC(=O)O [None (EDTA)]
- Specific activity [4]: 4.8

Molecule: O=c1cc[nH]c(=O)[nH]1 [Uracil]
- Specific activity [2]: 1.8 IU/mg

Molecule: [Zn+2] [Zn (II)]
- Specific activity [4]: 1.8

Molecule: Hydroxymethyl 5,5-dimethyl hydantoin
- Specific activity [2]: 5.6 IU/mg

Molecule: p-hydroxymethyl hydantoin
- Specific activity [2]: 1.9 IU/mg

B1: hydantoinase: D-hydantoinase from Ochrobactrum anthropi, SEQ ID NO: 2; in Table 3 assayed in glutaraldehyde treated cells (protein, listed as Ochrobactrum anthropi)
chain: MAKVIKGGTVITADRTFKADVLIEGEKIVAVGDNLSGDEVIDASGCYIMPGGIDPHTHLQMPFMGTYSSDDFDTGTAAALAGGTTMVVDFVLPGSEGNLLEALQEWFQKAGKARTDYSFHMAITGWNERTFNEMAEVVKRGINTFKHFMAYKGALMVNDDEMFASFQRCAELGAMPLVHAENGDIVAQLQAKLMAEGNDGPEAHAYSRPPEVEGEATNRAIMIADQAGVPLYVVHVSCEQSHEAIRRARQKGMRVFGEPLIQHLTLDESEYHNRDWDYAARRVMSPPFRDKANQDSLWAGLAAGSLQCVATDHCAFTTEQKRYGIGNFTKIPNGTGGLEERMPVLWSRGVRTGRLTPNEFVAVTSTNIAKILNIYPQKGAVLPGADADLVIWDPEATRKVSAKTQHSSIDYNVFEGFELKGLPKMTLSRGRVAFDKGNVTAEPGDGRFIEREPNGAVNRALSQWKEIVAPRKVERSAEHMPIGV
- Specific activity [5]: greater than 4 IU per mg of protein
- PI [6]: approximately 4.5
- Relative Activities ([7]; held at pH 8.8 for about 4 hours): 1.75
- Relative Activities ([7]; held at pH 9.3 for about 4 hours): 1.17
- Relative Activities ([7]; held at pH 9.8 for about 4 hours): 0.62

Reference: patent US6800465B2, “D-hydantoinase from Ochrobactrum anthropi” (priority 2001, dated 2004)
